Here are results for one substance from patent publication US6028115A, “Method for preventing sexually transmitted diseases” (priority 1999, dated 2000).

One data set has as its system HIV-1 virus. Particulars: general statement, no assay details; cited from earlier work.
Another data set has as its system MT2 cells. Nature of the data set: toxicity towards host cells of the virus assays. It is filed as cell-based. Particulars: concentration ranges used in the virus assays. How it is done: Serial dilutions of the test compounds (ranging from 0.1 μg/ml to 1.0 mg/ml) were added to HIV-1 virus such that 50 μl inoculum produced between 70 to 100 syncytia per well in untreated wells containing MT2 cells. The mHV-1 used was strain IIIs propagated in, and harvested from, a T4-lymphobastoid cell line. Each serial dilution of the test compound with virus was placed in each of three wells containing MT2 cells. The test compound alone was added to a fourth well containing MT2 cells to test for possible cytotoxicity. Triplicate virus control samples (no added test compounds but containing the equivalent amounts of the RPMI medium) were also included.

The test system of a further data set is Lactobacillus gasseri. Nature of the data set: growth of normal vaginal flora bacterium in culture. It is filed as cell-based. Particulars: 0.5 mg/ml, anaerobic, 37° C. Here is the method: This example illustrates the effect of the inhibitory agents of this invention on the normal vaginal flora. Lactobacillus gasseri, which is found in normal vaginal flora, was obtained from the American Type Culture Collection (Rockville, Md.) and cultured under anaerobic conditions at 37° C. in the presence of the desired test agents. Control samples without added test agents were also run. Samples were collected at twenty minute intervals starting at 120 minutes after the start of incubation through 240 minutes. The absorbance at 550 nm was used to estimate the cell density and inhibitory effects. Nonoxynol-9 was also evaluated for comparison purposes.

Data set [1] concerns sheep testicular hyaluronidase. As to the kind of experiment: hyaluronidase inhibition (hyaluronic acid hydrolysis). It is filed as biochemical. To be noted: pH 5.5, 10 minutes preincubation, 30 minutes at room temperature. How it is done:
Hyaluronidase activity was quantitatively determined by measuring the extent of hyaluronic acid hydrolysis (i.e., the concentration of N-acetylglucosamine-reactive material formed from enzyme activity). Reaction mixtures (0.25 ml) containing the following were prepared: test compound (variable concentration); 0.1 M sodium acetate; 0.15 M sodium chloride; pH adjusted to 5.5; 7.2 units sheep testicular hyaluronidase (Sigma, Type III; H-2251) contained in an acetate buffer; 0.3 mg/ml hyaluronic acid (Sigma, from bovine vitreous humor; H-7630). The enzyme was preincubated with the test agent (1 mg/ml for screening purposes) for 10 minutes before starting the reaction by the addition of hyaluronic acid. The enzyme reaction was determined using the method of Aronson and Davidson (J. Biol. Chem. 241 437-440 (1967)). The reaction mixture was incubated for 30 minutes at room temperature. The reaction product was determined calorimetrically with p-dimethylaminobenzaldehyde (Reissig et al., J. Biol. Chem. 217 959-966 (1965)) by measuring the absorbance at 545 nm.
The reversibility of the hyaluronidase was determined by evaluating enzyme activity at different levels of enzyme (Ackermann and Potter, Proc. Soc. Exp. Biol. Med. 72 1-9 (1949)).

For data set [2], the system named is bovine papillomavirus type I. To be noted: general statement; cited from earlier work.

Take Nonoxynol-9: the “inhibition of the enveloped virus HIV (statement)” value with HIV-1 virus is given as “inhibits”. Besides, in the data set with MT2 cells, the “toxicity towards the host cells” value is “did show cytotoxic effects”. Moreover, in the data set with Lactobacillus gasseri, the “inhibition of growth of Lactobacillus gasseri” value is given as “about 60%”. For the same substance, the IC50 result in data set [1] is “inactive”. Further, the “inhibition of the non-enveloped papillomavirus (statement)” value in data set [2] is “not”.
